The test system of test [1] is D. immitis microfilariae. The test can be described thus: Dirofilaria immitis, microfilariae (DiMF) in vitro motility assay. It counts as cell-based. Conditions: Dirofilaria immitis, 72 h, read-out: DiMF minimally effective dose (MEC).
Test [2] has as its system Haemonchus contortus L3. Nature of the test: microbe, parasite or virus in culture. Type of test: cell-based. The settings on record: Haemonchus contortus, 96 h, read-out: HcL3 Minimal Effective Concentration (MEC).

Some results are limits rather than exact numbers.

On to `O=C(NCc1ccnc(F)c1)n1c2c(c3ccc(OC(F)(F)F)cc31)CN(C/C=C/c1ccc(F)c(Cl)c1)CC2` [Example 375, (E)-2-(3-(3-chloro-4-fluorophenyl)allyl)-N-((2-fluoropyridin-4-yl)methyl)-7-(trifluoromethoxy)-1,2,3,4-tetrahydro-5H-pyrido[4,3-b]indole-5-carboxamide], for which the minimal effective concentration was found to be 18.2 µM in test [1] and 1.8 µM in test [2].
`CS(=O)(=O)c1ccc2c(c1)c1c(n2C(=O)NCc2ccnc(Cl)c2)CCN(C/C=C/c2ccc(Cl)c(F)c2)C1` [Example 455, (E)-2-(3-(4-chloro-3-fluorophenyl)allyl)-N-((2-chloropyridin-4-yl)methyl)-8-(methylsulfonyl)-1,2,3,4-tetrahydro-5H-pyrido[4,3-b]indole-5-carboxamide]: the minimal effective concentration in test [1] was 5.7 µM; in test [2], 0.7 µM.
Regarding `N#Cc1ccc2c3c(n(C(=O)NCc4ccnc(F)c4)c2c1)CCN(C/C=C/c1ccc(Cl)cc1F)C3` [Example 52, (E)-2-(3-(4-chloro-2-fluorophenyl)allyl)-7-cyano-N-((2-fluoropyridin-4-yl)methyl)-1,2,3,4-tetrahydro-5H-pyrido[4,3-b]indole-5-carboxamide], the minimal effective concentration was 10 µM in test [1] and 5.7 µM in test [2].
Take `O=C(NCc1ccnc(Cl)c1)n1c2c(c3cc(OC(F)(F)F)c(Br)cc31)CN(C/C=C/c1ccc(Cl)cc1)CC2` [Example 497, (E)-7-bromo-2-(3-(4-chlorophenyl)allyl)-N-((2-chloropyridin-4-yl)methyl)-8-(trifluoromethoxy)-1,2,3,4-tetrahydro-5H-pyrido[4,3-b]indole-5-carboxamide]: the minimal effective concentration in test [1] was determined as 5.7 µM; in test [2], 1 µM.
For `O=C(NCc1ccnc(Cl)c1)n1c2c(c3ccc(Br)cc31)CN(C/C=C/c1ccc(F)cc1F)CC2` [Example 199, (E)-7-bromo-N-((2-chloropyridin-4-yl)methyl)-2-(3-(2,4-difluorophenyl)allyl)-1,2,3,4-tetrahydro-5H-pyrido[4,3-b]indole-5-carboxamide], the results for the minimal effective concentration in test [1] and in test [2] were 24.5 µM and 5.7 µM, respectively.
On to `N#Cc1ccc2c3c(n(C(=O)NCc4ccnc(Cl)c4)c2c1)CCN(C/C=C/c1cc(F)ccc1Br)C3` [Example 10, (E)-2-(3-(2-bromo-5-fluorophenyl)allyl)-N-((2-chloropyridin-4-yl)methyl)-7-cyano-1,2,3,4-tetrahydro-5H-pyrido[4,3-b]indole-5-carboxamide], for which the minimal effective concentration in test [1] is greater than 100 µM; in test [2], 1 µM.
Consider `O=C(NCc1ccnc(Cl)c1)n1c2c(c3cc(F)c(Cl)cc31)CN(C/C=C/c1cc(F)cc(F)c1)CC2` [Example 302, (E)-7-chloro-N-((2-chloropyridin-4-yl)methyl)-2-(3-(3,5-difluorophenyl)-allyl)-8-fluoro-1,2,3,4-tetrahydro-5H-pyrido[4,3-b]indole-5-carboxamide], for which the values for the minimal effective concentration in test [1] and in test [2] were 5.7 µM and 0.3 µM, respectively.
With `O=C(NCc1ccnc(Cl)c1)n1c2c(c3cc(Cl)ccc31)CN(C/C=C/c1ccc(F)cc1Cl)CC2` [Example 237, (E)-8-chloro-2-(3-(2-chloro-4-fluorophenyl)allyl)-N-((2-chloropyridin-4-yl)methyl)-1,2,3,4-tetrahydro-5H-pyrido[4,3-b]indole-5-carboxamide], the minimal effective concentration stood at 1.8 µM in test [1] and 0.03 µM in test [2].
Take `O=C(NCc1ccnc(Cl)c1)n1c2c(c3cc(F)c(Cl)cc31)CN(C/C=C/c1ccc(Cl)c(F)c1)CC2` [Example 297, (E)-7-chloro-2-(3-(4-chloro-3-fluorophenyl)allyl)-N-((2-chloropyridin-4-yl)methyl)-8-fluoro-1,2,3,4-tetrahydro-5H-pyrido[4,3-b]indole-5-carboxamide]: the minimal effective concentration in test [1] was greater than 100 µM; in test [2], 0.3 µM.

Source of the values: patent US10570129B2 (Zoetis Services LLC, priority 2015, dated 2020).
